We go through 1 compound from US20060019952A1, “Anti-viral therapeutics” (ELIXIR PHARMACEUTICALS, INC., priority 2004, published 2006).

The test addresses T1, GFP-hSIRT2 isoform 1 (Homo sapiens, UniProt Q8IXJ6).
T1 construct: expressed in transfected cells; host or cells: HeLa
T1 sequence (Q8IXJ6 1-389): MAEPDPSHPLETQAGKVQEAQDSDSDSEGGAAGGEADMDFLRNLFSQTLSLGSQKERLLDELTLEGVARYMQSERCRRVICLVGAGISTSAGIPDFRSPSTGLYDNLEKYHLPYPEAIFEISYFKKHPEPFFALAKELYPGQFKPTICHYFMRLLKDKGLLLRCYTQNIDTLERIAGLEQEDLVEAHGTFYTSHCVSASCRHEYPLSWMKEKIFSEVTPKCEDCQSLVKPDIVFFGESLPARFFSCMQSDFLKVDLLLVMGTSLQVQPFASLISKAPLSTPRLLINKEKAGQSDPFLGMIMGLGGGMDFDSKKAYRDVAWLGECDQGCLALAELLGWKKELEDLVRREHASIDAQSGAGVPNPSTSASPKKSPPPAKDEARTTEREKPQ
The experiment in a line: Acetylated tubulin staining in HeLa cells transfected with GFP-hSIRT2 isoform 1. The class given is cell-based. The note with it: 50 μM compound with 1 μM TSA, added 36 hours post transfection, fixed next morning, versus DMSO. As to the method: HeLa cells were transfected with GFP-hSIRT2 isoform 1. At 36 hours post transfection 1 μM of TSA and either DMSO or 50 μM of Compound 8 was added. The next morning cells were fixed, permeabilized, and stained for acetylated tubulin.

SMILES strings stand for the structures.

For the compound `NC(=O)COC(=O)c1sc2ccccc2c1Cl` [Compound 8, 3-Chloro-benzo[b]thiophene-2-carboxylic acid carbamoylmethyl ester], the “tubulin acetylation in cells expressing SIRT2 (staining for acetylated tubulin)” value is reported as “more highly acetylated”.
